# Results taken from publication PMC5096949 (Toxicology letters, 2016).
# Key:
# [1] = biological target: T1, Human Recombinant hCE2 (carboxylesterase 2) (Homo sapiens, UniProt O00748); experiment: Esterase inhibition, fluorimetric assay with CMNA substrate; format: biochemical
# T1 sequence (O00748 27-559): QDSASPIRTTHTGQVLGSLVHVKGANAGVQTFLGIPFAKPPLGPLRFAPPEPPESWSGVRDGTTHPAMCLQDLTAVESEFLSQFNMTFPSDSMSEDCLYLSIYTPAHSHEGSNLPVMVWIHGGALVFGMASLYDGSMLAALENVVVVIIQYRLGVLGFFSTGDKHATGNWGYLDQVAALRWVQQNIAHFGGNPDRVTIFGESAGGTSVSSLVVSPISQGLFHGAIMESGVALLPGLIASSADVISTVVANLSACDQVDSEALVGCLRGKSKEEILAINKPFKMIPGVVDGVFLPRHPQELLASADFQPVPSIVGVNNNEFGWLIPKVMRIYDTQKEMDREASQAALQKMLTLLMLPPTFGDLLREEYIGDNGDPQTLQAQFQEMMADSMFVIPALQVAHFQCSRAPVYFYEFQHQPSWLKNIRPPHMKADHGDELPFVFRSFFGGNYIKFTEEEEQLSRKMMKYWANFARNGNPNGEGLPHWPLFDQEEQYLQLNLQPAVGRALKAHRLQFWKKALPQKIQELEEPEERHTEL
# [2] = system: 3T3-L1 cells; experiment: 3T3-L1 adipocyte differentiation, Oil Red O staining of lipid accumulation; format: cell-based, Murine
# [3] = system: PPARγ, C/EBPα and FABP4 mRNA expression; experiment: RT-PCR of adipocyte marker genes in 3T3-L1 cells; format: cell-based, Murine
smiles,measurement,setting,value
"O=C(OCc1ccccc1)c1ccc(O)cc1 [Benzylparaben, benzylparaben]",IC50,[1],> 10 µM
same,effect on AEA-mediated adipocyte differentiation (Oil Red O),"[2]; 10 μM compound, co-treatment with AEA 10 μM, 7 days",do not synergize to increase adipocyte differentiation
same,adipocyte differentiation / lipid accumulation (Oil Red O staining),"[2]; 1, 10, 50 μM for 7 days",dose-dependently enhanced 3T3-L1 adipocyte differentiation
same,effect on AEA-induced adipocyte marker expression,"[3]; 3T3-L1, 10 μM compound, co-treatment with AEA 10 μM, 7 days",not significantly changed
same,"PPARγ, C/EBPα and FABP4 mRNA expression","[3]; 3T3-L1, 1, 10, 50 μM for 7 days, n = 3","enhanced PPARγ, C/EBPα and FABP4 mRNA expression"
